The text below walks through data of patent publication US11357817B2, “Immunoproteasome inhibitor” (The Regents of the University of California, priority 2017, dated 2022).

Each structure is given as a SMILES string.

One test has as its target Pf20S (Plasmodium falciparum, UniProt A0A5K1K7U1+Q8IJT1). Kind of test: Calculation of inhibition constants (inactivation kinetics), Pf20S. The note with it: Pf20S. It is filed as biochemical. The procedure:
(§1) The rate of AMC release was calculated in the presence of serial dilution of each inhibitor. The rate of product formation were calculated at 30 min intervals for 4 hours, and normalized to activity DMSO control to calculate inactivation curves. Kobs values for each inhibitor concentration were calculated from inactivation curves, and inhibition constants KI and kinact were calculated by non-linear regression of Kobs and inhibitor concentration using GraphPad Prism 6 software.

A further test concerns the target T1, c20S (Homo sapiens, UniProt P20618+P28074).
T1 construct: purchased Boston Biochem
Briefly: Calculation of inhibition constants (inactivation kinetics), c20S. It is filed as biochemical. The procedure:
as §1

Another test relates to HepG2 cells. Briefly: HepG2 cytotoxicity assay. It is filed as cell-based. The note with it: Homo sapiens. The procedure:
The liver-stage and HepG2 toxicity assays were performed as previously reported (35). Briefly, HepG2-A16-CD81EGFP, human hepatocarcinoma HepG2 cells stably transformed to express the tetraspanin CD81 receptor (36, 37) and thus susceptible to P. berghei infection, were cultured at 37° C. in 5% CO2 in DMEM (Life Technologies, Calif.) supplemented with 10% FBS, 0.29 mg/ml glutamine, 100 unit penicillin and 100 μg/ml streptomycin. For both the P. berghei-luciferase and HepG2 cytotoxicity assays, 3×10^3 of the HepG2-A16-CD81EGFP cells in 5 μl of assay medium (DMEM without Phenol Red (Life Technologies, Calif.), 5% FBS, and 5× Pen Strep Glutamine (Life Technologies, Calif.)) at concentration 6×10^5 cells/ml were seeded in 1536-well plates (Greiner BioOne white solid bottom custom GNF mold) 20-26 hours prior to the actual infection. 18 hours prior to infection, 50 nl of compound in DMSO (0.5% final DMSO concentration per well) were transferred with Acoustic Transfer System (ATS) (Biosero) into the assay plates. Atovaquone (12-point serial dilution starting at 10 μM) and Puromycin (12-point serial dilution starting at 10 μM) were used as positive controls for Pb. liver stage assay and HepG2 cytotoxicity respectively. 0.5% DMSO was used as negative control for the both assays.
An. stephensi mosquitoes, infected with P. berghei-luciferase, were provided by the New York University Insectary. P. berghei-luciferase sporozoites were freshly dissected from the infected A. stephensi mosquito salivary glands, filtered twice through a 20 μm nylon net filter using Steriflip Vacuum-Driven Filtration System (Millipore), counted in a hemocytometer, and then adjusted to final concentration 200 sporozoites per μl in the assay media. […] The HepG2-A16-CD81EGFP cell designated for toxicity studies were left uninfected, with 5 ul of additional assay media added to each well to maintain equal concentrations of compounds with P. berghei-luciferase infected plates. After incubation at 37° C. for 48 hours the exoerythrocytic growth and HepG2-A16-CD81EGFP cell viability were quantified by a bioluminescence measurement.
The HepG2 cytotoxicity was assessed by removing the media through an inverted spin of the plates at 150 g for 30 s and addition of 2 μL of CellTiterGlo reagent (Promega diluted 1:2 with deionized water) per well using the MicroFlo liquid handler (BioTek). Immediately after addition of the luminescence reagent, the plates were vortexed for 10 s and read with an EnVision Multilabel reader (PerkinElmer). IC50 values were obtained as above.

The subject of a further test is P. falciparum Dd2. Briefly: P. falciparum Dd2 asexual blood stage SYBR Green I compound sensitivity assay. It is filed as cell-based, Plasmodium falciparum. The note with it: for IC50: Plasmodium falciparum, DD2, 72 h, asexual blood stage, 72 hour SYBR green assay; for Selectivity Index: P. falciparum activity versus HepG2 activity. Here is the method: P. falciparum Dd2 strain parasites were cultured under standard conditions (31), using RPMI media supplemented with 0.05 mg/ml gentamycin, 0.014 mg/mL hypoxanthine (prepared fresh), 38.4 mM HEPES, 0.2% Sodium Bicarbonate, 3.4 mM Sodium Hydroxide, 0.05% O+ Human Serum (Denatured at […] for 40 min and From Interstate Blood Bank, Memphis, Tenn.) and 0.0025% Albumax). Human O+ whole blood was obtained from TSRI blood bank (La Jolla, Calif.). Leukocyte-free erythrocytes are stored at 50% hematocrit in RPMI-1640 screening media (as above, but without O+ human serum and with 2× albumax concentration) at 4° C. for one to three weeks before experimental use. Cultures were monitored every one to two days via Giemsa-stained thin smears.
(§2) Compound susceptibility was measured using the malaria SYBR Green I-based fluorescence assay (32). Asynchronous P. falciparum parasites (Dd2 strain) were cultured in standard conditions before being plated for the assays. Each compound was tested over 72 hours in technical duplicates on a twelve-point concentration curve prepared by three-fold dilution from 6.7 μM to 0.11 nM. At least three independent experiments were carried out for IC50 determination. Artemisinin and chloroquine were used as controls. IC50 values were obtained using normalized fluorescence intensity from SYBR green I and analyzed via non-linear variable slope four-parameter regression curve-fitting model in Prism 6 (GraphPad Software Inc).

In another test the test system is Dd2 parasites. Kind of test: Artemisinin synergy, 72 hour SYBR green assay with co-treatment. It is filed as cell-based, Plasmodium falciparum. The note with it: Plasmodium falciparum, DD2; wild-type parasites treated with ART alone. The procedure:
as §2

Pf20S, sequence (A0A5K1K7U1 entry or part of it): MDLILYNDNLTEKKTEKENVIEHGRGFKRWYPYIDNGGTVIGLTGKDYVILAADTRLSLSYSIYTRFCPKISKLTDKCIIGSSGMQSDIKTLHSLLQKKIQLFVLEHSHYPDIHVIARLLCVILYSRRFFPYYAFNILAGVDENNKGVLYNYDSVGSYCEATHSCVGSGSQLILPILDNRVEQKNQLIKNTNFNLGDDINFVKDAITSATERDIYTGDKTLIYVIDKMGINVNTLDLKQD
Pf20S, sequence (Q8IJT1 entry or part of it): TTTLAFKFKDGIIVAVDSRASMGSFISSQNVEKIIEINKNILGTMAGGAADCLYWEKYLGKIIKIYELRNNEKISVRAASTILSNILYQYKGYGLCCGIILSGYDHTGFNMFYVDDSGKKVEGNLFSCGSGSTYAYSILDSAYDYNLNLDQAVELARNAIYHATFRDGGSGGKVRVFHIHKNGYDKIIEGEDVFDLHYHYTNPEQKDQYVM

As for `CCCCCC(=O)N[C@H](C(=O)N[C@@H](CCCC)C(=O)N[C@@H](CC(C)C)C(=O)[C@@]1(C)CO1)C(C)C` [Analog 1, (S)-2-((S)-2-hexanamido-3-methylbutanamido)-N—((S)-4-methyl-1-((R)-2-methyloxiran-2-yl)-1-oxopentan-2-yl)hexanamide], the results for the Ki on Pf20S and on c20S (c20S) were 2290 nM and 3.74 µM, respectively. In addition, the “loss in potency to c20S” value at c20S (kinact/Ki, analog 1 versus carmaphycin B) is reported as 3 fold. For the same compound, the 50% inhibitory concentration (IC50) (commonly the point on the concentration scale where inhibition reaches its midpoint) with HepG2 cells is 134 ± 86.7 nM; with P. falciparum Dd2, 4.11 ± 0.077 nM.

In the test on HepG2 cells, `CCCCCC(=O)N[C@@H](Cc1c[nH]c2ccccc12)C(=O)N[C@@H](Cc1c[nH]c2ccccc12)C(=O)N[C@@H](CC(C)C)C(=O)[C@@]1(C)CO1` [Analog 16, N—((S)-1-(((S)-3-(1H-indol-3-yl)-1-(((S)-4-methyl-1-((R)-2-methyloxiran-2-yl)-1-oxopentan-2-yl)amino)-1-oxopropan-2-yl)amino)-3-(1H-indol-3-yl)-1-oxopropan-2-yl)hexanamide] showed an IC50 of 11.7 ± 3.32 nM. Besides, in the test on P. falciparum Dd2, the “Selectivity Index” value worked out at 3.16 and the IC50 was 3.7 ± 0.144 nM.

Turning to `CCCCCC(=O)N[C@@H](Cc1c[nH]c2ccccc12)C(=O)N[C@@H](Cc1c[nH]c2ccccc12)C(=O)N[C@@H](Cc1ccccc1)C(=O)[C@@]1(C)CO1` [Analog 17, N—((S)-1-(((S)-3-(1H-indol-3-yl)-1-(((S)-1-((R)-2-methyloxiran-2-yl)-1-oxo-3-phenylpropan-2-yl)amino)-1-oxopropan-2-yl)amino)-3-(1H-indol-3-yl)-1-oxopropan-2-yl)hexanamide], the half-inhibitory concentration (IC50) with HepG2 cells came out at 346 ± 86.2 nM. For the same compound, in the test with P. falciparum Dd2, the “Selectivity Index” value is 36.89 and the IC50 amounted to 9.38 ± 0.667 nM.

In the test with HepG2 cells, `CCCCCC(=O)N[C@H](Cc1c[nH]c2ccccc12)C(=O)N[C@@H](CCCC)C(=O)N[C@@H](CC(C)C)C(=O)[C@@]1(C)CO1` [Analog 19, (S)-2-((R)-2-hexanamido-3-(1H-indol-3-yl)propanamido)-N—((S)-4-methyl-1-((R)-2-methyloxiran-2-yl)-1-oxopentan-2-yl)hexanamide] yielded an IC50 of 915 ± 289 nM. In the test on P. falciparum Dd2 (D-amino acid at P3 in place of L-Val of analog 1, comparator not stated), this compound displayed an increase in selectivity of 100 fold. For the same compound, in the test with P. falciparum Dd2, the “Selectivity Index” value was 313.36 and 2.92 ± 0.403 nM corresponded to half-maximal inhibition (IC50).

As for `C[C@@H]1CC[C@H]2[C@@H](C)C(=O)O[C@@H]3O[C@@]4(C)CC[C@@H]1[C@]32OO4` [Artemisinin, artemisinin], in the test on Dd2 parasites, the IC50 is 19.7 to 23.3 nM.
